These results are taken from patent US20240317735A1, “HYDROISOQUINOLINE OR HYDRONAPHTHYRIDINE COMPOUNDS FOR THE TREATMENT OF AUTOIMMUNE DISEASE” (Hoffmann-La Roche Inc., priority 2020, published 2024).

Data set [1] can be described thus: Human microsome stability assay. Format: in vitro ADME. The settings on record: 1 μM test compound, 0.5 mg/mL liver microsomal protein, 37° C., pH 7.4. The essentials: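 1 μM compound with 0.5 mg/mL human liver microsomes in 100 mM potassium phosphate pH 7.4, 37° C, started with NADPH-regenerating system after 10 min preincubation. Sampled at 0, 3, 6, 9, 15, 30 min, quenched in acetonitrile; parent remaining by LC-MS/MS, with no-NADPH controls.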
In general terms: Liver microsomes are a subcellular fraction often used to study metabolism.

For another data set, the target named is T1, human TLR8 (Homo sapiens, UniProt Q9NR97).
T1 construct: host or cells: HEK293 (HEK-Blue hTLR8)
T1 sequence (Q9NR97 27-1041): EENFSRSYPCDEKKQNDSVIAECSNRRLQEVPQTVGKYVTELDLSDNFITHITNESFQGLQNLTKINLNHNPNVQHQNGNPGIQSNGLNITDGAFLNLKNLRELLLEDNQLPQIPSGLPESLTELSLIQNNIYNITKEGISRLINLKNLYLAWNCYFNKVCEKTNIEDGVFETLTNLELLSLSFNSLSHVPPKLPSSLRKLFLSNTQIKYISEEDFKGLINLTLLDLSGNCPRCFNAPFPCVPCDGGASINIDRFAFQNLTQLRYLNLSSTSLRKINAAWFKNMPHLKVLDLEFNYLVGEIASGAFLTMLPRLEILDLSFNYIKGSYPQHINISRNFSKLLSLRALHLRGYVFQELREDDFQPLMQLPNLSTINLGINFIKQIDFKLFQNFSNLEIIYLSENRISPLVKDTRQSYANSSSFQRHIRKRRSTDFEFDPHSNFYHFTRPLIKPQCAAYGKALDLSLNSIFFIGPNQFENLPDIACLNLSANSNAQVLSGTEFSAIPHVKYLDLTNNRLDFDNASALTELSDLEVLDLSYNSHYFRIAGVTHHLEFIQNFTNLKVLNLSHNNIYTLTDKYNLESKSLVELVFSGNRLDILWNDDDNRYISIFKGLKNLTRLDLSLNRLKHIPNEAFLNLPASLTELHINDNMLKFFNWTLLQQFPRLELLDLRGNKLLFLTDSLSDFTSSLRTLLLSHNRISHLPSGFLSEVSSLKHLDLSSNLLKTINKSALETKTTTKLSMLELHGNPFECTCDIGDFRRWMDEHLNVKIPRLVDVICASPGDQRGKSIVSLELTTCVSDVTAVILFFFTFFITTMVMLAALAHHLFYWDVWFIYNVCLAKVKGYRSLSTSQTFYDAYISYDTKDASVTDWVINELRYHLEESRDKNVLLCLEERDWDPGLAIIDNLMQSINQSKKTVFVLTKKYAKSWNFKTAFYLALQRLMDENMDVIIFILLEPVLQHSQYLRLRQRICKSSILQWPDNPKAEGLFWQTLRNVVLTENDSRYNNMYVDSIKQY
Kind of data set: HEK293-Blue-hTLR-8 cells assay (SEAP reporter, R848 stimulation). The settings on record: HEK293-Blue-hTLR8 cells, R848, 20 hrs; read-out: HEK/hTLR8 IC50. The data set is classed as cell-based. The essentials: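 HEK293-Blue hTLR8 cells with NF-κB/AP-1-driven SEAP reporter incubated 20 h at 37 °C with serially diluted compound (1% DMSO) and R848 stimulus (60 μM stock). Supernatant SEAP measured with QUANTI-Blue (2 h, 37 °C) by absorbance at 620–655 nm; antagonism read as reduced reporter signal.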

In the case of `Cc1cc(N2Cc3ccc(N4C[C@@H](N)[C@H](O)C4)cc3[C@@H](C)C2)c2cnn(C)c2n1` [Example 47, trans-4-amino-1-[(4R)-2-(1,6-dimethylpyrazolo[3,4-b]pyridin-4-yl)-4-methyl-3,4-dihydro-1H-isoquinolin-6-yl]pyrrolidin-3-ol], in data set [1], the “Clearance of Human microsome” value worked out at 6.2 mL/min/kg. In addition, at human TLR8, the IC50 was 3 nM.

On to `Cc1cc(N2Cc3ccc(N4CC5(CNCCO5)C4)cc3[C@@H](C)C2)c2cnn(C)c2n1` [Example 48, 2-[(4R)-2-(1,6-dimethylpyrazolo[3,4-b]pyridin-4-yl)-4-methyl-3,4-dihydro-1H-isoquinolin-6-yl]-5-oxa-2,8-diazaspiro[3.5]nonane], for which the “Clearance of Human microsome” value in data set [1] was found to be 7.2 mL/min/kg. Besides, on human TLR8, the IC50 stood at 6 nM.

For the compound `C[C@H]1CN(c2ccnc3c2cnn3C)Cc2ccc(N3CCN[C@@H](CO)C3)cc21` [Example 50, [(2R)-4-[(4R)-4-methyl-2-(1-methylpyrazolo[3,4-b]pyridin-4-yl)-3,4-dihydro-1H-isoquinolin-6-yl]piperazin-2-yl]methanol], the “Clearance of Human microsome” value in data set [1] is listed as 6.2 mL/min/kg. On human TLR8, the IC50 is 3 nM.

`C[C@H]1CN(c2ccnc3c2cnn3C)Cc2ccc(N3CCN[C@H](CO)C3)cc21` [Example 51, [(2S)-4-[(4R)-4-methyl-2-(1-methylpyrazolo[3,4-b]pyridin-4-yl)-3,4-dihydro-1H-isoquinolin-6-yl]piperazin-2-yl]methanol]: the “Clearance of Human microsome” value in data set [1] is 7.7 mL/min/kg. In addition, on human TLR8, the IC50 was 4 nM.

As to `C[C@H]1CN(c2ccnc3c2cnn3C)Cc2ccc(N3CC4(CCNC4)CC3=O)cc21` (stereo partly drawn) [Example 52, 2-[(4R)-4-methyl-2-(1-methylpyrazolo[3,4-b]pyridin-4-yl)-3,4-dihydro-1H-isoquinolin-6-yl]-2,7-diazaspiro[4.4]nonan-3-one], the “Clearance of Human microsome” value in data set [1] stood at 6.2 mL/min/kg. The IC50 on human TLR8 is 3 nM.

With `Cc1cc(N2Cc3ccc(N4CCC(N)CC4)nc3[C@@H](C)C2)c2cnn(C)c2n1` [Example 58, 1-[(8S)-6-(1,6-dimethylpyrazolo[3,4-b]pyridin-4-yl)-8-methyl-7,8-dihydro-5H-1,6-naphthyridin-2-yl]piperidin-4-amine], in data set [1], the “Clearance of Human microsome” value worked out at 9.0 mL/min/kg. The IC50 at human TLR8 was found to be 0.4 nM.

For the compound `Cc1cc(N2Cc3ccc(N4CCC(C)(N)CC4)nc3[C@@H](C)C2)c2cnn(C)c2n1` [Example 59, 4-methyl-1-[(8S)-6-(1,6-dimethylpyrazolo[3,4-b]pyridin-4-yl)-8-methyl-7,8-dihydro-5H-1,6-naphthyridin-2-yl]piperidin-4-amine], the “Clearance of Human microsome” value in data set [1] was found to be 9.4 mL/min/kg. Also, at human TLR8, the IC50 worked out at 0.5 nM.

With `C[C@H]1CN(c2ccnc3c2cnn3C)Cc2ccc(N3CCNCC3)nc21` [Example 62, (8S)-8-methyl-6-(1-methylpyrazolo[3,4-b]pyridin-4-yl)-2-piperazin-1-yl-7,8-dihydro-5H-1,6-naphthyridine], the “Clearance of Human microsome” value in data set [1] was 6.8 mL/min/kg. Further, the IC50 at human TLR8 was 2 nM.

Consider `CO[C@@H]1CN(c2ccc3c(n2)[C@@H](C)CN(c2cc(C)nc4c2cnn4C)C3)C[C@H]1N` [Example 63, (3R,4R)-4-methoxy-1-[(8S)-6-(1,6-dimethylpyrazolo[3,4-b]pyridin-4-yl)-8-methyl-7,8-dihydro-5H-1,6-naphthyridin-2-yl]pyrrolidin-3-amine], for which, in data set [1], the “Clearance of Human microsome” value was found to be 6.2 mL/min/kg. The IC50 on human TLR8 is 16 nM.

Turning to `Cc1cc(N2Cc3ccc(OC4CCNCC4)nc3[C@@H](C)C2)c2cnn(C)c2n1` [Example 64, (8S)-6-(1,6-dimethylpyrazolo[3,4-b]pyridin-4-yl)-8-methyl-2-(4-piperidyloxy)-7,8-dihydro-5H-1,6-naphthyridine], in data set [1], the “Clearance of Human microsome” value is on record as 7.0 mL/min/kg. Besides, on human TLR8, the IC50 was 4 nM.

For `Cc1cc(N2Cc3ccc(N4CCNCC4)nc3[C@@H](C)C2)c2cnn(C)c2n1` [Example 66, (8S)-6-(1,6-dimethylpyrazolo[3,4-b]pyridin-4-yl)-8-methyl-2-piperazin-1-yl-7,8-dihydro-5H-1,6-naphthyridine], the “Clearance of Human microsome” value in data set [1] was 9.8 mL/min/kg. In addition, the IC50 on human TLR8 was 1 nM.

Regarding `Cc1cc(N2Cc3ccc(N4CCN(C)CC4)nc3[C@@H](C)C2)c2cnn(C)c2n1` [Example 67, (8S)-6-(1,6-dimethylpyrazolo[3,4-b]pyridin-4-yl)-8-methyl-2-(4-methylpiperazin-1-yl)-7,8-dihydro-5H-1,6-naphthyridine], in data set [1], the “Clearance of Human microsome” value stood at 10.5 mL/min/kg. Also, the IC50 on human TLR8 stood at 1 nM.

Consider `Cc1cc(N2Cc3ccc(N4CC5(CNCCO5)C4)nc3[C@@H](C)C2)c2cnn(C)c2n1` [Example 68, 2-[(8S)-6-(1,6-dimethylpyrazolo[3,4-b]pyridin-4-yl)-8-methyl-7,8-dihydro-5H-1,6-naphthyridin-2-yl]-5-oxa-2,8-diazaspiro[3.5]nonane], for which, in data set [1], the “Clearance of Human microsome” value is reported as 9.8 mL/min/kg. On human TLR8, the IC50 was 17 nM.

Regarding `Cc1cc(N2Cc3ccc(N4C[C@@H](F)[C@@H](N)C4)nc3[C@@H](C)C2)c2cnn(C)c2n1` [Example 69, (3S,4R)-4-fluoro-1-[(8S)-6-(1,6-dimethylpyrazolo[3,4-b]pyridin-4-yl)-8-methyl-7,8-dihydro-5H-1,6-naphthyridin-2-yl]pyrrolidin-3-amine], the “Clearance of Human microsome” value in data set [1] is 8.1 mL/min/kg. Besides, on human TLR8, the IC50 was 9 nM.

Take `Cc1cc(N2Cc3ccc(N4CCOC5(CNC5)C4)nc3[C@@H](C)C2)c2cnn(C)c2n1` [Example 70, 8-[(8S)-6-(1,6-dimethylpyrazolo[3,4-b]pyridin-4-yl)-8-methyl-7,8-dihydro-5H-1,6-naphthyridin-2-yl]-5-oxa-2,8-diazaspiro[3.5]nonane]: the “Clearance of Human microsome” value in data set [1] was 8.1 mL/min/kg. Moreover, on human TLR8, the IC50 was 28 nM.

On to `Cc1cc(N2Cc3ccc(N4CCNCC4)nc3[C@H](C)C2)c2cnn(C)c2n1` [Example 72, (8R)-6-(1,6-dimethylpyrazolo[3,4-b]pyridin-4-yl)-8-methyl-2-piperazin-1-yl-7,8-dihydro-5H-1,6-naphthyridine], for which, in data set [1], the “Clearance of Human microsome” value amounted to 7.3 mL/min/kg. Further, the IC50 on human TLR8 turned out to be 2 nM.

For `CO[C@H]1CN(c2cc3c(cn2)CN(c2cc(C)nc4c2cnn4C)C[C@@H]3C)CC[C@@H]1N` [Example 73, (3S,4S)-3-methoxy-1-[(5R)-7-(1,6-dimethylpyrazolo[3,4-b]pyridin-4-yl)-5-methyl-6,8-dihydro-5H-2,7-naphthyridin-3-yl]piperidin-4-amine], the “Clearance of Human microsome” value in data set [1] worked out at 6.3 mL/min/kg. In addition, the IC50 on human TLR8 worked out at 2 nM.

On to `Cc1cc(N2Cc3cnc(N4CCNCC4)cc3[C@@H](C)C2)c2cnn(C)c2n1` [Example 74, (4R)-2-(1,6-dimethylpyrazolo[3,4-b]pyridin-4-yl)-4-methyl-6-piperazin-1-yl-3,4-dihydro-1H-2,7-naphthyridine], for which the “Clearance of Human microsome” value in data set [1] amounted to 9.2 mL/min/kg. Besides, the IC50 on human TLR8 was 2 nM.

Consider `Cc1cc(N2Cc3cnc(O[C@@H]4C[C@H]5CNCCN5C4)cc3[C@@H](C)C2)c2cnn(C)c2n1` [Example 76, (4R)-2-(1,6-dimethylpyrazolo[3,4-b]pyridin-4-yl)-4-methyl-6-[[(7R,8aS)-1,2,3,4,6,7,8,8a-octahydropyrrolo[1,2-a]pyrazin-7-yl]oxy]-3,4-dihydro-1H-2,7-naphthyridine], for which the “Clearance of Human microsome” value in data set [1] is 6.2 mL/min/kg. Further, the IC50 at human TLR8 is 16 nM.
